7 compounds from ChEMBL document CHEMBL1268954, “Toward the development of innovative bifunctional agents to induce differentiation and to promote apoptosis in leukemia: clinical candidates and perspectives” (J Med Chem, 2010) can be followed below.

Data set [1] in a line: Oral bioavailability in mouse. The data set is classed as ADME, organism-based. The note with it: in vivo.
A short description of data set [2]: Oral bioavailability in rat. The data set is classed as ADME, organism-based. The note with it: in vivo.
Data set [3] is described as follows: Oral bioavailability in dog. Format: ADME, organism-based, Canis lupus familiaris. Particulars: in vivo.
The target of data set [4] is Apoptosis regulator Bcl-2 (Homo sapiens, UniProt P10415). In words: Binding affinity to BCl2.
Chain of Apoptosis regulator Bcl-2 (P10415 whole entry): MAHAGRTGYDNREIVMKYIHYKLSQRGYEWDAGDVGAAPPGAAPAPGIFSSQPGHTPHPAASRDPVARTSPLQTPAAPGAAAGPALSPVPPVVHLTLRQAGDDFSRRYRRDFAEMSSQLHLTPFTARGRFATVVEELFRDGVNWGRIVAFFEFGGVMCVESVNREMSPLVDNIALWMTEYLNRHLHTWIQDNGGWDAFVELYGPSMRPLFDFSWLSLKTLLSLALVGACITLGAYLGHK
Data set [5] in a line: Inhibition of FTase.
Data set [6] in a line: Aqueous solubility of the compound. The note with it: aqueous medium. Format: physicochemical.
Data set [7] in a line: Induction of apoptosis in human CLL cells. The data set is classed as functional, cell-based.
Data set [8] is described as follows: Selectivity ratio of IC50 for cathepsin to IC50 for proteasome.
A short description of data set [9]: Inhibition of proteasome. The data set is classed as subcellular.
Data set [10] has as its target T1, Cathepsin G (Homo sapiens, UniProt P08311).
T1 sequence (P08311 whole entry): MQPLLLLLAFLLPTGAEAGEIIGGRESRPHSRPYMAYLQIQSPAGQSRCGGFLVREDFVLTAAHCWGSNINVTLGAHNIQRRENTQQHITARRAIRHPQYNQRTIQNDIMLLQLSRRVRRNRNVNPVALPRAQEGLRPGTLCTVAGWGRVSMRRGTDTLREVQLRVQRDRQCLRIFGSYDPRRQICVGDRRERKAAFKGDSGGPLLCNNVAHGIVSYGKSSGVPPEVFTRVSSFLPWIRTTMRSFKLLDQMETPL
In words: Inhibition of cathepsin G.

Data set [11] deals with T1, Cathepsin G. In words: Inhibition of cathepsin G in human MOLT4 cells. The data set is classed as cell-based, MOLT-4.

For `COC[C@H](NC(=O)c1cnc(C)s1)C(=O)N[C@@H](COC)C(=O)N[C@@H](Cc1ccccc1)C(=O)[C@]1(C)CO1`, the figures for the bioavailability in [1], in data set [2] and in data set [3] were 17%, 21% and 39%, respectively.
Turning to `CN(C)CC[C@H](CSc1ccccc1)Nc1ccc(S(=O)(=O)NC(=O)c2ccc(N3CCC(C)(C)CC3)cc2)cc1[N+](=O)[O-]`, the Ki (usually a dissociation constant, usually derived from enzyme kinetics or from competition with a known ligand) in [4] is 62 nM.
For the compound `Cn1cncc1[C@](N)(c1ccc(Cl)cc1)c1ccc2c(c1)c(-c1cccc(Cl)c1)cc(=O)n2C` [(S)-TIPIFARNIB], in data set [5], the EC50 (as a rule, the concentration needed to bring the measured effect to its halfway point) came out at 1.8 nM.
For `CN(C)CC[C@H](CSc1ccccc1)Nc1ccc(S(=O)(=O)NC(=O)c2ccc(N3CCN(Cc4ccccc4-c4ccc(Cl)cc4)CC3)cc2)cc1[N+](=O)[O-]` [ABT 737], the solubility (commonly the concentration that dissolves in the medium under given conditions) in [6] is less than 1 µg/mL. The response in data set [7] was half-maximal at 4.5 nM (EC50).
For `CC(C)C[C@H](NC(=O)[C@H](Cc1ccccc1)NC(=O)c1cnccn1)B(O)O` [BORTEZOMIB], the Ratio IC50 in data set [8] was found to be 200000. Besides, the half-inhibitory concentration (IC50) – broadly, the midpoint of a concentration-inhibition curve – in data set [9] was 0.6 nM.
Consider `CC(C)C[C@H](NC(=O)[C@@H](NC(=O)c1cccc(-c2ccccc2)n1)[C@@H](C)O)B(O)O` [DELANZOMIB], for which inhibition at Cathepsin G [10] was half-maximal at 13.7 nM (IC50). The EC50 on Cathepsin G [11] is 13.5 nM.
With `Cn1cncc1[C@@](N)(c1ccc(Cl)cc1)c1ccc2c(c1)c(-c1cccc(Cl)c1)cc(=O)n2C` [TIPIFARNIB], the IC50 in data set [5] came out at 0.6 nM. This lies in the sub-nanomolar range.
